Test results from ChEMBL document CHEMBL1201862, “PubChem BioAssay data set” (2004).
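Compound exposure: 48 hours, 5 concentrations, 96-well plates. GI50 marks 50% less growth.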 Calls of active or inactive are those of the source. Cut-off read from the data, not from the text of the source: active = GI50 up to about 1.1 µM and inactive = higher.

Key:
Experiment in all cases: DTP human tumour cell line panel, 48 h
786-0 = system: 786-0
A549 = system: A549
ACHN = system: ACHN
CAKI-1 = system: CAKI-1
COLO 205 = system: COLO 205
EKVX = system: EKVX
HCC 2998 = system: HCC 2998
KM12 = system: KM12
MDA-N = system: MDA-N
NCI-H460 = system: NCI-H460
NCI-H522 = system: NCI-H522
NCI/ADR-RES = system: NCI/ADR-RES
PC-3 = system: PC-3
RPMI-8226 = system: RPMI-8226
RXF 393 = system: RXF 393
SF-268 = system: SF-268
SK-MEL-5 = system: SK-MEL-5
SK-OV-3 = system: SK-OV-3
T47D = system: T47D
UO-31 = system: UO-31

Structure (SMILES)	GI50 (786-0)	GI50 (A549)	GI50 (ACHN)	GI50 (CAKI-1)	GI50 (COLO 205)	GI50 (EKVX)	GI50 (HCC 2998)	GI50 (KM12)	GI50 (MDA-N)	GI50 (NCI-H460)	GI50 (NCI-H522)	GI50 (NCI/ADR-RES)	GI50 (PC-3)	GI50 (RPMI-8226)	GI50 (RXF 393)	GI50 (SF-268)	GI50 (SK-MEL-5)	GI50 (SK-OV-3)	GI50 (T47D)	GI50 (UO-31)
CC(C)(C)OCC1NC(=O)[C@@H]2Cc3c([nH]c4ccccc34)C(c3ccccc3)N2C1=O (stereo not given in full)	> 50 µM (inactive)	> 50 µM (inactive)	> 50 µM (inactive)	> 50 µM (inactive)	> 50 µM (inactive)	> 50 µM (inactive)	> 50 µM (inactive)	> 50 µM (inactive)	> 50 µM (inactive)	> 50 µM (inactive)	> 50 µM (inactive)	> 50 µM (inactive)	> 50 µM (inactive)	> 21.6 µM (inactive)	> 50 µM (inactive)	> 50 µM (inactive)	> 50 µM (inactive)	> 50 µM (inactive)	> 50 µM (inactive)	> 50 µM (inactive)
COc1cc(C)c(C2NC(=O)c3ccccc3N2)cc1C (stereo not given)	0.417 µM (active)	0.596 µM (active)	0.47 µM (active)	0.252 µM (active)	0.313 µM (active)	1.12 µM (inactive)	1.33 µM (inactive)	0.15 µM (active)	0.0283 µM (active)	0.342 µM (active)	0.254 µM (active)	0.149 µM (active)	0.265 µM (active)	0.0931 µM (active)	0.358 µM (active)	0.518 µM (active)	0.135 µM (active)	0.378 µM (active)	0.447 µM (active)	0.468 µM (active)
CC(=O)Nc1n[n+]([O-])c2cc(C)ccc2[n+]1[O-]	3.26 µM (inactive)	2.44 µM (inactive)	2.33 µM (inactive)	2.52 µM (inactive)	2.37 µM (inactive)	4.79 µM (inactive)	3.84 µM (inactive)	3.68 µM (inactive)	3.56 µM (inactive)	0.378 µM (active)	2.05 µM (inactive)	5.79 µM (inactive)	1.81 µM (inactive)	2.83 µM (inactive)	5.75 µM (inactive)	3.57 µM (inactive)	1.51 µM (inactive)	5.86 µM (inactive)	2.34 µM (inactive)	3.38 µM (inactive)
O=C(O)[C@H](CCC[C@H]1C(=O)O[C@H](c2ccccc2)[C@H](c2ccccc2)N1C(=O)OCc1ccccc1)N[C@@H](c1ccccc1)[C@H](O)c1ccccc1	32.5 µM (inactive)	> 100 µM (inactive)	> 100 µM (inactive)	> 100 µM (inactive)	30.8 µM (inactive)	38.6 µM (inactive)	21 µM (inactive)	19.7 µM (inactive)	21.7 µM (inactive)	34.5 µM (inactive)	15.5 µM (inactive)	> 100 µM (inactive)	37.1 µM (inactive)	22.4 µM (inactive)	22.6 µM (inactive)	33.7 µM (inactive)	18.5 µM (inactive)	61.8 µM (inactive)	43.3 µM (inactive)	> 100 µM (inactive)
CC1(C)CC[C@]2(C(=O)O)[C@H](O)C[C@]3(C)C(=CC[C@@H]4[C@@]5(C)CC[C@H](OC6OC(C(=O)O)C(O)C(O)C6O)C(C)(C)[C@@H]5CC[C@]43C)[C@@H]2C1 (stereo not given in full)	> 100 µM (inactive)	> 100 µM (inactive)	40.4 µM (inactive)	> 100 µM (inactive)	> 100 µM (inactive)	78.3 µM (inactive)	27.2 µM (inactive)	56.2 µM (inactive)	> 100 µM (inactive)	> 100 µM (inactive)	> 100 µM (inactive)	> 100 µM (inactive)	> 100 µM (inactive)	> 100 µM (inactive)	26.1 µM (inactive)	88.5 µM (inactive)	> 100 µM (inactive)	> 100 µM (inactive)	> 100 µM (inactive)	17.4 µM (inactive)
COC(=O)c1ccc(NCC2=CC(=O)c3ccccc3C2=O)cc1	19.3 µM (inactive)	22.5 µM (inactive)	13.9 µM (inactive)	11.6 µM (inactive)	13.3 µM (inactive)	21.1 µM (inactive)	19.4 µM (inactive)	15.4 µM (inactive)	9.23 µM (inactive)	18.2 µM (inactive)	13.2 µM (inactive)	27.5 µM (inactive)	14.3 µM (inactive)	6.32 µM (inactive)	22 µM (inactive)	24.8 µM (inactive)	11.7 µM (inactive)	16.1 µM (inactive)	12.2 µM (inactive)	16.1 µM (inactive)
